Here are results for 75 compounds from PubChem BioAssay AID720632 (Broad Institute, 2013).

The test concerns the target Caspase-6 (Homo sapiens) (UniProt P55212). Kind of test: human caspase-6 inhibitors, dose response, biochemical, VEID-R110 fluorescence, cherry-pick (AID 720632). The settings on record: caspase-6, VEID-R110 fluorogenic substrate.

Structures are written as SMILES. Active and inactive are the calls of the source. No rule for the calls is given here.

Sequence of Caspase-6 (Homo sapiens) (P55212 24-179 limits assumed): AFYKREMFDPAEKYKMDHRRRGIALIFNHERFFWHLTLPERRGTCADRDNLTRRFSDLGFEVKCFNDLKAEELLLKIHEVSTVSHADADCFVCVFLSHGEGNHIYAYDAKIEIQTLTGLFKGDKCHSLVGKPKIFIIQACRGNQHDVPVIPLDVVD
Sequence of Caspase-6 (Homo sapiens) (P55212 194-293 limits assumed): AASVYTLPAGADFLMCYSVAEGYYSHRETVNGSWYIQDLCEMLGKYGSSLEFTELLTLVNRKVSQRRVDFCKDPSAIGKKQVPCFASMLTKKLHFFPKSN

In the case of `CO[C@@H]1CN(C)C(=O)c2ccc(NC(=O)c3ccccc3)cc2OC[C@@H](C)N(C(=O)C2CC2)C[C@@H]1C`, the “activity change, negative = inhibition” value (at 26 µM (top of the series)) is “inactive”.
In the case of `CCOc1ccc(-c2n[nH]c(=S)n2Cc2ccccc2)cc1`, the “activity change, negative = inhibition” value (at 26 µM (top of the series)) is “inactive”.
As for `CCOc1ccc(Nc2nc(N3CCOCC3)nc(N3CCOCC3)n2)cc1`, under “at 26 µM (top of the series)”, the “activity change, negative = inhibition” value was “inactive”.
Consider `Cc1cc2c(NC(=O)Nc3ccc(C(F)(F)F)cc3)cccc2nn1`, for which the “activity change, negative = inhibition” value (at 26 µM (top of the series)) was “inactive”.
`COC(=O)c1ccc(C(=O)OC)c(NC(=O)CN(c2ccc3c(c2)OCO3)S(C)(=O)=O)c1`: the “activity change, negative = inhibition” value (at 26 µM (top of the series)) is “inactive”.
For `Nc1cc(C(Cl)=C(Cl)Cl)c(S(N)(=O)=O)cc1S(N)(=O)=O`, for the setting “at 26 µM (top of the series)”, the “activity change, negative = inhibition” value was “inactive”.
`CC(C)(C)NC(=O)C1CCN(S(=O)(=O)c2cccc3nsnc23)CC1`: under “at 26 µM (top of the series)”, the “activity change, negative = inhibition” value is “inactive”.
Take `O=C(NC1CCCCC1)N[C@H]1C=C[C@@H](CC(=O)N2CCOCC2)O[C@@H]1CO`: the “activity change, negative = inhibition” value (at 26 µM (top of the series)) is “inactive”.
With `COc1cc(NC(=O)c2cccnc2)c(Cl)cc1NC(=O)c1ccccc1`, the “activity change, negative = inhibition” value (at 26 µM (top of the series)) was “inactive”.
Consider `O=C(Nc1ccc2c(c1)OCO2)C1Cc2c(-c3ccc4c(c3)OCO4)ccnc2O1` (stereo not given), for which, for the setting “at 26 µM (top of the series)”, the “activity change, negative = inhibition” value was “inactive”.
The same measure, in the same setting: for `CC(C)N=C(Nc1cccnc1)c1ccccc1` the value was “inactive”; for `CN(c1ccc(C(=O)Nc2ccc3c(c2)n(C)c(=O)n3C)cc1)S(C)(=O)=O`, “inactive”; for `COc1cccc(CN(C)CC(O)COc2cc(Cl)ccc2Cl)c1` (stereo not given), “inactive”.
On to `CCCC(=O)Nc1ccc2c(c1)OC[C@H](C)N(Cc1ccc(F)cc1)C[C@@H](C)[C@H](OC)CN(C)C2=O`, for which the “activity change, negative = inhibition” value (at 26 µM (top of the series)) was “inactive”.
For `NNC(=O)CC1=NNC(=O)C1`, where the note is “at 26 µM (top of the series)”, the “activity change, negative = inhibition” value was “inactive”.
For `O=C(O)c1ccc(NS(=O)(=O)/C=C/c2ccccc2)cc1O`, the “activity change, negative = inhibition” value (at 26 µM (top of the series)) was “inactive”.
For the compound `CCCN1C[C@H](C)[C@@H](OC)CN(C)C(=O)c2ccc(NC(=O)CC)cc2OC[C@@H]1C`, the “activity change, negative = inhibition” value (at 26 µM (top of the series)) was “inactive”.
As for `CO[C@H]1CN(C)C(=O)c2ccc(NC(=O)C3CC3)cc2OC[C@@H](C)N(Cc2cccc(F)c2)C[C@@H]1C`, the “activity change, negative = inhibition” value (at 26 µM (top of the series)) is “inactive”.
On to `COc1ccccc1C(=O)Nc1ccc2c(c1)OC[C@H](C)N(CC1CC1)C[C@@H](C)[C@@H](OC)CN(C)C2=O`, for which the “activity change, negative = inhibition” value (at 26 µM (top of the series)) is “inactive”.
As to `CC(C)(C)c1ccc(C(=O)Nc2ccc(S(=O)(=O)Nc3cnc4ccccc4n3)cc2)cc1`, the “activity change, negative = inhibition” value (at 26 µM (top of the series)) was “inactive”.
As to `CC(CN1CCCCC1)C(=O)NNC(=O)C12CC3CC(CC(C3)C1)C2` (stereo not given), the “activity change, negative = inhibition” value (at 26 µM (top of the series)) is “inactive”.
Take `CC(C)C(=O)N1CCN(c2ccccc2NC(=O)c2cccc3ccccc23)CC1`: the “activity change, negative = inhibition” value (at 26 µM (top of the series)) was “inactive”.
`CCOC(=O)CC1C(=O)NCCN1S(=O)(=O)c1cccc(C(F)(F)F)c1` (stereo not given): for the setting “at 26 µM (top of the series)”, the “activity change, negative = inhibition” value was “inactive”.
On to `CCOc1ncccc1C(=O)OC(C)C(=O)Nc1ccc(N2CCOCC2)cc1` (stereo not given), for which the “activity change, negative = inhibition” value (at 26 µM (top of the series)) is “inactive”.
The same measure, in the same setting: for `CCCN1C[C@H](C)[C@H](OC)CN(C)C(=O)c2ccc(NC(=O)CC)cc2OC[C@H]1C` the value was “inactive”.
Take `Cc1ccc(C)c(N2N=C(C(=O)OCc3nnc(-c4ccccc4Br)o3)CCC2=O)c1`: the “activity change, negative = inhibition” value (at 26 µM (top of the series)) is “inactive”.
As for `COc1cc(-c2nnc(COC(=O)c3ccc([N+](=O)[O-])o3)o2)cc(OC)c1OC`, the “activity change, negative = inhibition” value (at 26 µM (top of the series)) is “inactive”.
As to `O=C(O)c1ccc(Cn2cc(/C=C\[N+](=O)[O-])c3ccccc32)o1`, the “activity change, negative = inhibition” value (at 26 µM (top of the series)) was “inactive”.
For the compound `COc1ccc(OC)c(S(=O)(=O)NCC(c2cccs2)N2CCc3ccccc3C2)c1` (stereo not given), for the setting “at 26 µM (top of the series)”, the “activity change, negative = inhibition” value is “inactive”.
Still for that read-out and setting: for `CC1CC(C)CN(S(=O)(=O)c2ccc(F)c(C(=O)NC3CCCCC3C)c2)C1` (stereo not given) the value was “inactive”.
The same measure, in the same setting: with `COCCNc1nc(-c2ccc(OC)cc2)c(-c2ccc(OC)cc2)s1` the entry was “inactive”.
For the compound `Cc1ccc(-c2[nH]c3cc(C(=O)NCCCn4ccnc4)ccc3c(=O)c2O)cc1`, the “activity change, negative = inhibition” value (at 26 µM (top of the series)) is “inactive”.
Same read-out and setting: for `Cc1c(Cl)cccc1NC(=O)Nc1cc(C(C)(C)C)on1` the value was “inactive”; for `O=C(O)C[C@H]1CC[C@H]2[C@@H](COC[C@H](O)CN2S(=O)(=O)c2ccc(Oc3ccccc3)cc2)O1`, “inactive”.
As for `CCN(CC)c1ccc2c(cc1=O)[C@@H](NC)CCc1cc(OC)c(OC)c(OC)c1-2`, under “at 26 µM (top of the series)”, the “activity change, negative = inhibition” value was “inactive”.
As for `COC(=O)c1ccc(COc2cc([N+](=O)[O-])cc3cccnc23)o1`, the “activity change, negative = inhibition” value (at 26 µM (top of the series)) is “inactive”.
`Cc1ccc(S(=O)(=O)N(CC(=O)Nc2ccccc2C(=O)O)c2cccc(Cl)c2C)cc1`: the “activity change, negative = inhibition” value (at 26 µM (top of the series)) is “inactive”.
On the same count and under the same terms, for `Oc1ccc(Br)cc1CNc1cccc2cccnc12` the value was “inactive”.
For the compound `CO[C@H]1CN(C)C(=O)c2ccc(NC(=O)c3ccccc3)cc2OC[C@H](C)N(C(=O)C2CC2)C[C@H]1C`, the “activity change, negative = inhibition” value (at 26 µM (top of the series)) was “inactive”.
For `CCS(=O)(=O)c1nc(S(=O)(=O)c2ccc(Cl)cc2)c(N2CCOCC2)s1`, the “activity change, negative = inhibition” value (at 26 µM (top of the series)) is “inactive”.
As for `CCC1CCc2sc(C(=O)NNC(=O)c3ccncc3)cc2C1` (stereo not given), the “activity change, negative = inhibition” value (at 26 µM (top of the series)) is “inactive”.
For the compound `CCC(=O)Nc1ccc2c(c1)OC[C@H](C)N(C(=O)CC)C[C@@H](C)[C@@H](OC)CN(C)C2=O`, under “at 26 µM (top of the series)”, the “activity change, negative = inhibition” value was “inactive”.
As for `COc1ccccc1NC(=O)c1ccccc1S(=O)(=O)c1ccc([N+](=O)[O-])cc1`, the “activity change, negative = inhibition” value (at 26 µM (top of the series)) is “inactive”.
Consider `OC[C@H]1[C@H](c2ccc(-c3ccccc3F)cc2)[C@H]2CN(Cc3cccnc3)CCCCN21`, for which the “activity change, negative = inhibition” value (at 26 µM (top of the series)) is “inactive”.
Take `N/C(Cc1cccc2ccccc12)=N\OC(=O)c1ccccc1F`: the “activity change, negative = inhibition” value (at 26 µM (top of the series)) was “inactive”.
On the same count and under the same terms, with `CCOC(=O)[C@H]1[C@H]2COc3ccc(Cl)cc3[C@@H]2N2C(=O)CN(Cc3ccc(C)cc3)C(=O)[C@@]12C` the entry was “inactive”; with `Fc1cccc(Nc2nc(-c3ccncc3)nc3ccccc23)c1`, “inactive”.
As for `CCCCCn1nnnc1-c1nc2cc(C)c(C)cc2[nH]c1=O`, where the note is “at 26 µM (top of the series)”, the “activity change, negative = inhibition” value is “inactive”.
Regarding `COC(=O)C[C@@H]1CC[C@H](NC(=O)c2ccc3c(c2)OCO3)[C@@H](CO)O1`, the “activity change, negative = inhibition” value (at 26 µM (top of the series)) is “inactive”.
Take `CN(c1ccccc1)S(=O)(=O)c1cccc(C(=O)OCC(=O)Nc2ccc(C(N)=O)cc2)c1`: where the note is “at 26 µM (top of the series)”, the “activity change, negative = inhibition” value was “inactive”.
Regarding `COc1ccc(S(=O)(=O)N2CCOC23CCN(S(=O)(=O)c2ccc(C)cc2)CC3)cc1`, the “activity change, negative = inhibition” value (at 26 µM (top of the series)) was “inactive”.
Take `COCC(=O)Nc1ccc2c(c1)OC[C@@H](C)N(CC1CC1)C[C@H](C)[C@@H](OC)CN(C)C2=O`: the “activity change, negative = inhibition” value (at 26 µM (top of the series)) is “inactive”.
The same measure, in the same setting: for `O=c1nc2ccc(Cl)cn2c2ccc(S(=O)(=O)N3CCCCC3)cc12` the value was “inactive”.
The same measure, in the same setting: for `O=C1c2ccccc2C(=O)C1(CO)c1ccccc1` the value was “inactive”.
Turning to `S=c1[nH]c2cc(Cl)c3cccnc3c2o1`, the “activity change, negative = inhibition” value (at 26 µM (top of the series)) was “inactive”.
On the same count and under the same terms, with `COc1ccc(/C(C)=N/N2CCCCC2)c(O)c1` the entry was “inactive”.
`CO[C@H]1CN(C)C(=O)c2ccc(NC(=O)c3ccccc3)cc2OC[C@@H](C)N(C(=O)C2CC2)C[C@H]1C`: the “activity change, negative = inhibition” value (at 23.5 µM (top of the series)) is “inactive”.
With `O=C(CN1C(=O)NC2(CCc3ccccc32)C1=O)Nc1c(Cl)cccc1Cl` (stereo not given), for the setting “at 26 µM (top of the series)”, the “activity change, negative = inhibition” value was “inactive”.
For the compound `Cc1cc(NC(=O)C23CC4CC(C2)CC(n2cnc([N+](=O)[O-])n2)(C4)C3)no1`, the “activity change, negative = inhibition” value (at 26 µM (top of the series)) is “inactive”.
With `COc1ccccc1C#Cc1ccc2c(c1)O[C@@H](CN(C)C)[C@@H](C)CN([C@@H](C)CO)S2(=O)=O`, the “activity change, negative = inhibition” value (at 26 µM (top of the series)) is “inactive”.
Regarding `CO[C@@H]1CN(C)C(=O)c2ccc(NC(=O)C3CC3)cc2OC[C@H](C)N(Cc2cccc(F)c2)C[C@@H]1C`, the “activity change, negative = inhibition” value (at 26 µM (top of the series)) is “inactive”.
On to `CC(C)OCCCNC(=O)c1c(N)n(CC2CCCO2)c2nc3ccccc3nc12` (stereo not given), for which the “activity change, negative = inhibition” value (at 26 µM (top of the series)) is “inactive”.
`COc1ccc(N2CCN(C(=O)CCNS(=O)(=O)c3ccc(C)cc3)CC2)cc1`: for the setting “at 26 µM (top of the series)”, the “activity change, negative = inhibition” value was “inactive”.
On the same count and under the same terms, for `O=C(Nc1ccccc1)c1ccccc1OCc1cccc([N+](=O)[O-])c1` the value was “inactive”; for `COc1ccc(CCNC(=O)c2cc3cccc(OC)c3oc2=O)cc1OC`, “inactive”; for `O=C(c1nc2ccccn2c1CN1CCCC(c2nc3ccccc3o2)C1)N1CCCC1` (stereo not given), “inactive”.
Turning to `NN1C(=O)/C(=C2/Sc3ccccc3N2CCCS(=O)(=O)O)SC1=S`, the “activity change, negative = inhibition” value (at 26 µM (top of the series)) was “inactive”.
For the compound `CCCC(=O)Nc1ccc2c(c1)OC[C@H](C)NC[C@H](C)[C@H](OC)CN(C)C2=O`, for the setting “at 26 µM (top of the series)”, the “activity change, negative = inhibition” value is “inactive”.
Regarding `O=C(Nc1ccc(F)cc1)c1ccccc1NC(=O)C1CC=CCC1C(=O)O` (stereo not given), the “activity change, negative = inhibition” value (at 26 µM (top of the series)) is “inactive”.
Regarding `O=C(NCC(c1ccco1)N1CCc2ccccc21)c1ccc([N+](=O)[O-])cc1` (stereo not given), for the setting “at 26 µM (top of the series)”, the “activity change, negative = inhibition” value was “inactive”.
Regarding `COc1ccc(S(=O)(=O)n2cnc3ccccc32)cc1OC`, the “activity change, negative = inhibition” value (at 26 µM (top of the series)) was “inactive”.
On to `CC(CNC(=O)c1ccc(OC2CCN(Cc3ccccn3)CC2)cc1)c1ccccc1` (stereo not given), for which the “activity change, negative = inhibition” value (at 26 µM (top of the series)) is “inactive”.
Regarding `Cc1ccc(NS(=O)(=O)c2ccc(Br)s2)nc1`, the “activity change, negative = inhibition” value (at 26 µM (top of the series)) was “inactive”.
With `CCc1nc2c(OCc3ccc(C(=O)OC)cc3)cccn2c1N(C)C(=O)c1ccc(C)cc1`, the “activity change, negative = inhibition” value (at 26 µM (top of the series)) is “inactive”.
Same read-out and setting: for `Cc1cccc(C(=O)Nc2cccc(NC(=O)c3ccccc3)c2)c1` the value was “inactive”.
